Laboratory results from patent EP4119145A1, “COMPOUNDS FOR THE TREATMENT OF COVID-19” (priority 2021, dated 2023).
Structures can show the parent of a compound that is named as a salt. Where two headings read alike, the source gives them in different places.

Molecular target: SARS-CoV-2 PL-Pro (Severe acute respiratory syndrome coronavirus 2, UniProt P0DTD1)
Assay: biochemical
Settings: for inhibition at 20 µM: read-out: PLPro Inhibition [%] Primary Screen (20 µM)
[1] = dose response, 0.014 µM to 20 µM, 8 concentration points, read-out: IC50

| Compound | PLPro Inhibition [%] Primary Screen (20 µM) [%] | IC50 (read-out: IC50) [nM] | IC50 [1] [nM] | inhibition at 20 µM [%] | IC50 [nM] |
| --- | --- | --- | --- | --- | --- |
| cobalt(3+);[(2R,3S,4R,5S)-5-(5,6-dimethylbenzimidazol-1-yl)-4-hydroxy-2-(hydroxymethyl)oxolan-3-yl][(2R)-1-[3-[(1R,2R,3R,4Z,7S,9Z,12S,13S,14Z,17S,18S,19R)-2,13,18-tris(2-amino-2-oxoethyl)-7,12,17-tris(3-amino-3-oxopropyl)-3,5,8,8,13,15,18,19-octamethyl-2,7,12,17-tetrahydro-1H-corrin-21-id-3-yl]propanoylamino]propan-2-yl] phosphate;cyanide [Compound 17] | 141.27 | 2900 | – | – | – |
| CCOC(=O)C1=C(C)N=c2s/c(=C\c3ccc(OCC(=O)O)cc3)c(=O)n2C1c1ccc(SC)cc1 (centres unmarked) [Compound 15, 2-[4-[(Z)-[6-ethoxycarbonyl-7-methyl-5-(4-methylsulfanylphenyl)-3-oxo-5H-[1,3]thiazolo[3,2-a]pyrimidin-2-ylidene]methyl]phenoxy]acetic acid] | – | – | 3140 | 82.8 | – |
| CC1(C)CCC2=C(O1)c1ccccc1C(=O)C2=O [Compound 10, 2,2-Dimethyl-3,4-dihydro-2H-benzo[h]1-benzopyrane-5,6-dione] | – | – | 4430 | 146 | – |
| CC(C)(C)C(=O)Nc1ccc2c(c1)C(=O)C(=O)c1ccccc1-2 [Compound 5, N-(9,10-Dioxo-9,10-dihydrophenanthren-2-yl)-2,2-dimethylpropionamide] | – | – | 246 | 184 | – |
| CC1(C)C(=O)N=C2C1=C(O)C(=O)c1ccccc12 [Compound 9, 4-Hydroxy-3,3-dimethyl-3,5-dihydro-2H-benzobenzo[g]indole-2,5-dione] | – | – | 390 | 155 | – |
| O=C1C(Cl)=C(NCCN2CCOCC2)C(=O)c2ncccc21 [Compound 12, 6-Chloro-7-[2-(4-morpholinyl)ethylamino]-5,8-dihydroquinoline-5,8-dione] | – | – | – | 151 | 220 |
| Cc1cc2nc3c(=O)[nH]c(=O)nc-3n(C)c2cc1C=O [Compound 3, 7,10-Dimethyl-2,4-dioxo-2,3,4,10-tetrahydrobenzo[g]pteridine-8-carbaldehyde] | – | – | 401 | 119 | – |
| Cc1c(S(=O)(=O)O)oc2c1C(=O)C(=O)c1c-2ccc2c1CCCC2(C)C [Compound 8, 1,6,6-Trimethyl-10,11-dioxo-6,7,8,9,10,11-hexahydrophenanthro[1,2-b]furan-2-sulfonic acid sodium salt] | – | – | – | 124 | – |
| Cc1nc2c(=O)n(C)c(=O)nc-2n(C)n1 [Compound 2, 1,3,6-Trimethylpyrimido[5,4-e][1,2,4]triazine-5,7(1H,6H)-dione] | – | – | 74 | 181 | – |
| CC[N+](C)(CC)CCC[n+]1c(-c2ccccc2)c2cc(N)ccc2c2ccc(N)cc21 [Compound 14, 3,8-Diamino-5-(3-(diethyl(methyl)ammonio)propyl)-6-phenylphenanthridin-5-ium iodide] | – | – | – | 136 | 240 |
| CC(=NNC(=N)N)c1cc(NC(=O)CCCCCCCCC(=O)Nc2cc(C(C)=NNC(=N)N)cc(C(C)=NNC(=N)N)c2)cc(C(C)=NNC(=N)N)c1 [Compound 16, N,N'-Bis[3,5-bis[1-(2-amidinohydrazono)ethyl]phenyl]decanediamide] | – | – | 1210 | 140 | – |
| Cc1cccc2c1ccc1c3c(c(=O)oc(=O)c12)[C@@H](C)CO3 [Compound 11, (4R)-4,9-Dimethyl-4,5-dihydrofuro[3,2-c]naphtho[2,1-e]oxepine-1,3-dione] | – | – | 920 | 80.7 | – |
| Cc1ccc(NC2=CC(=O)c3sc(C)nc3C2=O)cc1 [Compound 13, 2-methyl-5-(4-methylanilino)-1,3-benzothiazole-4,7-dione] | – | – | 260 | 160 | – |
| O=C1C(=O)c2ccccc2-c2ccccc21 [Compound 6, phenanthrene-9,10-dione] | – | – | 504 | 181 | – |
| O=C1C(=O)c2cc([N+](=O)[O-])ccc2-c2ccccc21 [Compound 4, 2-Nitrophenanthrene-9,10-dione] | – | – | 129 | 186 | – |
